Reference: patent US4912092A, “Methods for increasing extracellular adenosine and for stabilizing mast cells” (The Regents of the University of California, priority 1987, dated 1990)
Where “and” joins values, the source holds several entries; their conditions need not be identical. Equal entries are not always repeated.

Assays:
[1] = test system: HPRT- neuroblastoma cells; assay: Adenosine excretion by ionophore-stimulated HPRT- neuroblastoma cells; type: cell-based; settings: for Concentration of Adenosine: HPRT-, AICA riboside 50 μM
Method: The history and properties of the cell line have been described by Hershfield et al. in Science, Vol. 197, p. 1284, 1977.
Catabolism of cellular ATP stores was stimulated by adding either 2-deoxyglucose or a calcium ionophore. At various times, the amount of adenosine released by the cells into the supernatant, or the amount of nucleotides remaining in the cells, was determined by mixing 30 μl of chilled 4.4N perchloric acid with 300 μl of supernatants, or by adding 300 μl of chilled 0.4N perchloric acid to the cells collected as pellets and centrifuging the mixtures at 500×G for 10 minutes at 4° C. […] 1245, 1975. Following centrifugation at 1500×G for three minutes at 4° C., the aqueous phase is removed and frozen at -20° C. until assayed for adenosine, inosine, or for nucleotides. Adenosine was evaluated isocratically on a C-18 microBondapak reverse phase column equilibrated with 4 millimolar potassium phosphate, (pH 3.4):acetonitrile 60% in water (95:5 v/v) buffer. Adenosine elutes at 8-10 minutes, and its identity was confirmed by its sensitivity to adenosine deaminase and by spiking with adenosine standards. The extracted samples from the cell pellet were analyzed for nucleotides by high pressure liquid chromatography on a Whatman Partisil-10 (SAX) column equilibrated with 10 millimolar potassium phosphate, pH 3.78, and eluted with a linear gradient to a 0.25 molar potassium phosphate, 0.5 molar KCl, pH 3.45. […] Peaks were quantitated by comparison with high pressure liquid chromatography analysis of suitable standards.
To induce ATP catabolism, the growth medium was replaced by medium containing micromolar amounts of the calcium ionophore A23187 and 1.0 μM deoxycoformycin.

adenosine = assay: Coronary venous adenosine concentrations during coronary artery occlusion in dogs; type: in vivo, dog
Method: FIG. 3. […] Coronary venous blood was collected into chilled 2N perchloric acid at various times before and after coronary artery occlusion. Supernatants from these extracts were neutralized with alamine and freon and evaluated by high performance liquid chromotography.
(§1) Thirteen mongrel dogs were anesthetized with phenobarbital. […] C.V. Dis. 20; 55 (1977). […] Two of the surviving saline-treated animals fibrillated. […] The range was 4.4 to 100 μM.

[2] = dog, in vivo, iv
Excerpt: Thirteen mongrel dogs were anesthetized with phenobarbital. […] C.V. Dis. 20; 55 (1977).

myocardial infarct = assay: Myocardial infarct size after tying off the left anterior descending coronary artery; type: in vivo, rat; settings: bolus then osmotic mini-pump infusion, three weeks; p<0.05
Excerpt: The animals were continuously exposed by infusion of either AICA riboside in saline or saline using osmotic mini-pumps well known to those in the art. After three weeks, the rats were sacrificed and infarct size quantitated by planimarizing stained sections of fixed hearts.

arrhythmias = assay: Arrhythmias (PVD, VTAC) during ischemia in dogs; type: in vivo, dog
Method: as §1
One consequence of myocardial ischemia is arrhythmia and the frequency of arrhythmias is related to the degree of reduced blood flow. […] Electrocardiograms recorded during ischemia of Example III were analyzed for the number of premature ventricular depolarizations (PVD) and ventricular tachycardia (VTAC) episodes.

[3] = test system: Mouse bone marrow-derived mast cells; type: cell-based; settings: 100 micromolar, A23187 at 1 μg/ml; 28.8% in its absence
Method: (§2) By preventing mast cell degranulation, it is possible to prevent or control a patient's allergic response. Bone marrow obtained from Balb/C mice femurs was cultured in a 1:1 mixture of Razin media and conditioned media, produced by co-culturing splenocytes from C57B1/6J and C3H mice in the presence of Concanavalin A as described by Razin et al. in the Proc. Natl. Acad. Sci. USA 28: 2559-2561, 1981. After weekly passaging and at least 15 days in tissue culture, the resulting cells were 90% pure mast cells and 95% viable as assessed by Trypan blue exclusion. Cells exposed to ribavirin in culture were washed three times prior to use in experiments. Parallel cultures of cells grown in media alone were used as controls for pharmacologically manipulated mast cells. Cell growth was assessed by counting cells at particular time points and comparing actual numbers of ribavirin-treated cells to numbers of cells grown in media alone.
β-hexosaminidase was chosen as a representative granule-associated, preformed mast cell mediator because it is easily quantitated, and its release nearly identically parallels that of histamine. Mouse bone marrow-derived mast cells were centrifuged at 200×g for 5 minutes, washed three times in Tyrode's buffer lacking divalent cations, sensitized for 30 minutes at 37° C. with anti-DNP ([…]) IgE (1 μg/10^6 cells) and challenged with either DNP-BSA antigen (175 ng/3×10^5 cells) or A23187 (10 μg/ml/3×10^5 cells) in 400 μl of complete Tyrode's buffer for 10 minutes at 37° C. Reaction mixtures were centrifuged at 200×g for 10 minutes, and supernatant and pellet β-hexosaminidase concentrations were assayed by the hydrolysis of p-nitrophenyl-β-D-glucosamide as described in Schwartz et al. in J. Immunol. […] Spontaneous β-hexosaminidase release was determined in unchallenged cells. The net % of β-hexosaminidase released is defined as follows: [formula] where [β-hex] is β-hexosaminidase and super. is supernatant. When exogenous adenosine was present in reaction mixtures, it was added simultaneously with the secretagogue.

[4] = test system: Mouse bone marrow-derived mast cells; assay: Mast cell leukotriene C4 release (radioimmune assay); type: cell-based
Method: as §2

[5] = test system: pentylene tetrazol-induced seizures; assay: Pentylene tetrazol-induced seizures; type: in vivo, rat
[6] = test system: isuprel-induced arrhythmias; assay: Isoproterenol (isuprel)-induced arrhythmias; type: in vivo, rat; settings: 1000 mg/kg intraperitoneally
Method: Five minutes later both animals were anesthetized with 330 mg/kg of chloral hydrate injected intraperitoneally. Then a single EKG lead was attached to each rat for simultaneous recording of the paired rats' electrocardiograms. To produce arrhythmia, each rat was injected subcutaneously with isuprel […].
Beginning 30 minutes after isuprel introduction, the electrocardiograph recording paper speed was run (5 cm/sec) for 10 minutes to count the arrhythmic beats of both animals.

[7] = dogs 1-6 of the AICA riboside group

- concentration [2]: 27.2 µM
SMILES: NC(=O)c1ncn([C@@H]2O[C@H](CO)[C@@H](O)[C@H]2O)c1N [AICA riboside, 5-amino-4-imidazolecarboxamide riboside]
- Concentration of Adenosine ([1]; ionophore 0 μg/ml): < 0.01 µM
- Concentration of Adenosine ([1]; ionophore 10 μg/ml, control 0.124): 0.513 µM
- correction of the twofold lower adenosine secretion of HPRT-deficient cells ([1]; pretreatment): can be corrected by pretreatment
- adenosine washout on reperfusion (adenosine; 1 minute after reperfusion): significant rise
- peak adenosine level, coronary venous blood (adenosine; 1 minute of ischemia, saline peak 0.22 +/-0.08 at 10 minutes): 1.79 ± 0.35 µM
- adenosine level, coronary venous blood (adenosine; 60 minutes of ischemia, saline undetectable): 0.18 ± 0.15 µM
- venous adenosine prior to ischemia (adenosine; before and during infusion): < 0.01 µM
- adenosine in blood from the right atrium (systemic blood) (adenosine; dog, in vivo): no detectable adenosine
- reduction of infarct size compared to saline-treated controls (myocardial infarct): 33%
- VTAC, average (arrhythmias; average of six dogs, saline 18.2, p<0.01): 4.7 EPISODES/H
- PVD, average (arrhythmias; average of six dogs, saline 112.2, p<0.01): 37.8 EPISODES/H
- PVD, individual dogs (arrhythmias; [7]): 12 EPISODES/H and 10 EPISODES/H and 182 EPISODES/H and 4 EPISODES/H and 13 EPISODES/H and 6 EPISODES/H
- VTAC, individual dogs (arrhythmias; [7]): 1 EPISODES/H and 0 EPISODES/H and 27 EPISODES/H
- hexosaminidase released [3]: 17.6%
- supernatant leukotriene C4 concentration ([4]; 100 μM for six days, A23187 challenge 20 minutes, control 51): 13 nanograms/10^6 cells
- inhibition at 100 µM ([4]; Mus musculus, Mast cell, 100 μM pretreatment for six days, p<0.01, read-out: reduction of leukotriene C4 release): 75%
- latency to seizure ([5]; 2000 mg/kg (total dose) intraperitoneal (FIG. 12)): dramatic prolongation
- reduction of animals having seizures ([5]; 2000 mg/kg (total dose) intraperitoneal, 60 mg/kg pentylene tetrazol): 40%
- reduction in paroxysmal ventricular contractions [6]: 39%
- ventricular fibrillation [6]: complete suppression
